# In ChEMBL document CHEMBL1149887, “Enantiospecific synthesis and cytotoxicity of 7-(4-methoxyphenyl)-6-phenyl-2,3,8,8a-tetrahydroindolizin-5(1H)-one enantiomers” (Bioorg Med Chem, 2008):
# System: HCT-116
# Experiment: Cytotoxicity against human HCT116 cells
# Format: functional, cell-based
row,Structure (SMILES),IC50 [nM]
1,COc1ccc(C2=C(c3ccccc3)C(=O)N3CCC[C@H]3C2)cc1,390
2,COc1ccc(C2=C(c3ccccc3)C(=O)N3CCC[C@@H]3C2)cc1,200
3,COc1cc2c3c(c4cc(OC)c(OC)cc4c2cc1OC)CN1CCCC1C3 (racemic) [(+/-)-TYLOPHORINE],670
